Key:
Format in all cases: functional
786-0 = assay: The compound was tested for its cytotoxic activity against the following renal cancer cell lines 786-0; conditions: Homo sapiens
Breast carcinoma cell = assay: The compound was tested for its growth inhibitory activity against breast cancer cell line; conditions: Homo sapiens
CNS carcinoma cell = assay: The compound was tested for its growth inhibitory activity against CNS cancer cell line; conditions: Homo sapiens
Colon carcinoma cell = assay: The compound was tested for its growth inhibitory activity against colon cancer cell line; conditions: Homo sapiens
EKVX = assay: The compound was tested for its cytotoxic activity against the following non small cell lung cancer cell lines EKVX; conditions: Homo sapiens
HCT-15 = assay: The compound was tested for its cytotoxic activity against the following colon cancer cell lines HCT-15; conditions: Homo sapiens
HL-60 = assay: The compound was tested for its growth inhibitory activity against […] cancer cell line HL60-TB; conditions: Homo sapiens
Hs-578T = assay: The compound was tested for its cytotoxic activity against the following breast cancer cell lines HS 578T; conditions: Homo sapiens
IGROV-1 = assay: The compound was tested for its cytotoxic activity against the following ovarian cancer cell lines IGROVI; conditions: Homo sapiens
K562 = assay: The compound was tested for its cytotoxicity against the following leukemia cell line K-562; conditions: Homo sapiens
[1] = test system: Panel leukemia (Carcinoma cell lines); assay: The compound was tested for its growth inhibitory activity against leukemia cell line; conditions: Homo sapiens
Lung cancer cell line = assay: The compound was tested for its growth inhibitory activity against non small cell lung cancer cell line; conditions: Homo sapiens
NCI-H522 = assay: The compound was tested for its cytotoxic activity against the following non small cell lung cancer cell lines NCI-H522; conditions: Homo sapiens
NCI/ADR-RES = assay: The compound was tested for its cytotoxic activity against the following breast cancer cell lines NCI / ADR-RES; conditions: Homo sapiens
Ovarian carcinoma cell = assay: The compound was tested for its growth inhibitory activity against ovarian cancer cell line; conditions: Homo sapiens
Prostatic carcinoma cell = assay: The compound was tested for its growth inhibitory activity against prostate cancer cell line; conditions: Homo sapiens
Renal cancer cell line = assay: The compound was tested for its growth inhibitory activity against renal cancer cell line; conditions: Homo sapiens
SF-268 = assay: The compound was tested for its cytotoxic activity against the following CNS cancer cell lines SF-268; conditions: Homo sapiens
SW-620 = assay: The compound was tested for its cytotoxic activity against the following colon cancer cell lines SW-620; conditions: Homo sapiens
SF-295 = assay: The compound was tested for its cytotoxic activity against the following CNS cancer cell lines SF-295; conditions: Homo sapiens
SK-OV-3 = assay: The compound was tested for its cytotoxic activity against the following ovarian cancer cell lines SK-OV-3; conditions: Homo sapiens
UO-31 = assay: The compound was tested for its cytotoxic activity against the following renal cancer cell lines UO-31; conditions: Homo sapiens
[2] = Mean value for over all cell lines tested
Melanoma cell = assay: The compound was tested for its growth inhibitory activity against melanoma, human cancer cell line

Compound | GI50 (786-0) [nM] | GI50 (Breast carcinoma cell) [nM] | GI50 (CNS carcinoma cell) [nM] | GI50 (Colon carcinoma cell) [nM] | GI50 (EKVX) [nM] | GI50 (HCT-15) [nM] | GI50 (HL-60) [nM] | GI50 (Hs-578T) [nM] | GI50 (IGROV-1) [nM] | GI50 (K562) [nM] | GI50 [1] [nM] | GI50 (Lung cancer cell line) [nM] | GI50 (NCI-H522) [nM] | GI50 (NCI/ADR-RES) [nM] | GI50 (Ovarian carcinoma cell) [nM] | GI50 (Prostatic carcinoma cell) [nM] | GI50 (Renal cancer cell line) [nM] | GI50 (SF-268) [nM] | mean GI50 [2] [nM] | GI50 (Melanoma cell) [nM] | further results
Br.Br.Br.O=C1c2cccc3cccc(c23)C(=O)N1CCCNCCCCNCCCNCCCN1C(=O)c2cccc3cccc(c23)C1=O | 185 | 3490 | 1160 | 2350 | 1050 | 10900 | 156 | 44 | 267 | 1170 | 250 | 580 | 30 | 19500 | 790 | 460 | 2490 | 111 | 1420 | 1170 | GI50 (SW-620): 449 nM; GI50 (SF-295): 4780 nM; GI50 (SK-OV-3): 1310 nM; GI50 (UO-31): 10600 nM
Br.Br.Br.Br.O=C1c2cccc3cccc(c23)C(=O)N1CCCNCCCNCCCCNCCCNCCCN1C(=O)c2cccc3cccc(c23)C1=O | 555 | 4490 | 4070 | 4230 | 4500 | 12800 | 33 | 630 | 856 | 3600 | 1430 | 3510 | 825 | 15100 | 6120 | 3460 | 7430 | 722 | 4310 | 4040 | GI50 (SW-620): 1160 nM; GI50 (SF-295): 5350 nM; GI50 (SK-OV-3): 10800 nM; GI50 (UO-31): 10800 nM
Br.Br.O=C1c2cccc3cccc(c23)C(=O)N1CCCNCCCCNCCCN1C(=O)c2cccc3cccc(c23)C1=O | 24 | 2260 | 290 | 590 | 1370 | 2660 | 222 | 65 | 82 | 12 | 80 | 530 | 13 | 13100 | 340 | 130 | 570 | 29 | 580 | 440 | GI50 (SW-620): 37 nM; GI50 (SF-295): 488 nM; GI50 (SK-OV-3): 722 nM; GI50 (UO-31): 1910 nM
Br.Br.O=C1c2cccc3cccc(c23)C(=O)N1CCCNOCCONCCCN1C(=O)c2cccc3cccc(c23)C1=O |  | 77600 | 65900 | 73200 |  |  |  |  |  |  | 25700 | 72600 |  |  | 81000 | 77600 | 65400 |  | 68600 | 78000 | 
